PubChem BioAssay (NCI)
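These data come from cells grown in 96-well plates and exposed to compound for 48 hours at five concentrations. At the GI50, growth is halved. TGI is the concentration that stops growth completely.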

Key:
Test in all cases: NCI anticancer screen, dose series, 48 h
[1] = system: 786-0 renal
[2] = system: A498 renal
[3] = system: A549 NSCLC
[4] = system: ACHN renal
[5] = system: BT-549 breast
[6] = system: CAKI-1 renal
[7] = system: CCRF-CEM leukemia
[8] = system: COLO 205 colon
[9] = system: DU-145 prostate
[10] = system: EKVX NSCLC
[11] = system: HCC-2998 colon
[12] = system: HCT-116 colon
[13] = system: HCT-15 colon
[14] = system: HL-60(TB) leukemia
[15] = system: HOP-62 NSCLC
[16] = system: HOP-92 NSCLC
[17] = system: HS 578T breast
[18] = system: HT29 colon
[19] = system: IGROV1 ovarian
[20] = system: K-562 leukemia
[21] = system: KM12 colon
[22] = system: LOX IMVI melanoma
[23] = system: M14 melanoma
[24] = system: MALME-3M melanoma
[25] = system: MCF7 breast
[26] = system: MDA-MB-231 breast
[27] = system: MDA-MB-435
[28] = system: MOLT-4 leukemia
[29] = system: NCI-H226 lung
[30] = system: NCI-H23 lung
[31] = system: NCI-H460 lung
[32] = system: NCI-H522 lung
[33] = system: NCI/ADR-RES ovarian
[34] = system: OVCAR-3 ovarian
[35] = system: OVCAR-4 ovarian
[36] = system: OVCAR-5 ovarian
[37] = system: OVCAR-8 ovarian
[38] = system: PC-3 prostate
[39] = system: RPMI-8226 leukemia
[40] = system: RXF 393 renal
[41] = system: SF-268 CNS
[42] = system: SF-295 CNS
[43] = system: SF-539 CNS
[44] = system: SK-MEL-2 melanoma
[45] = system: SK-MEL-28 melanoma
[46] = system: SK-MEL-5 melanoma
[47] = system: SK-OV-3 ovarian
[48] = system: SN12C renal
[49] = system: SNB-19 CNS
[50] = system: SNB-75 CNS
[51] = system: SW-620 colon
[52] = system: T-47D breast
[53] = system: TK-10 renal
[54] = system: U251 CNS
[55] = system: UACC-257 melanoma
[56] = system: UACC-62 melanoma
[57] = system: UO-31 renal

CC(C)[C@H](N)C(=O)N1CCC[C@H]1B(O)O
GI50 [1]: > 100 µM
TGI [1]: > 100 µM
GI50 [2]: > 100 µM
TGI [2]: > 100 µM
GI50 [3]: > 100 µM
TGI [3]: > 100 µM
GI50 [4]: > 100 µM
TGI [4]: > 100 µM
GI50 [5]: > 100 µM
TGI [5]: > 100 µM
GI50 [6]: > 100 µM
TGI [6]: > 100 µM
GI50 [7]: > 100 µM
TGI [7]: > 100 µM
GI50 [8]: > 100 µM
TGI [8]: > 100 µM
GI50 [9]: > 100 µM
TGI [9]: > 100 µM
GI50 [10]: > 100 µM
TGI [10]: > 100 µM
GI50 [11]: > 100 µM
TGI [11]: > 100 µM
GI50 [12]: > 100 µM
TGI [12]: > 100 µM
GI50 [13]: > 100 µM
TGI [13]: > 100 µM
GI50 [14]: > 100 µM
TGI [14]: > 100 µM
GI50 [15]: > 100 µM
TGI [15]: > 100 µM
GI50 [16]: > 100 µM
TGI [16]: > 100 µM
GI50 [17]: > 100 µM
TGI [17]: > 100 µM
GI50 [18]: > 100 µM
TGI [18]: > 100 µM
GI50 [19]: > 100 µM
TGI [19]: > 100 µM
GI50 [20]: > 100 µM
TGI [20]: > 100 µM
GI50 [21]: > 100 µM
TGI [21]: > 100 µM
GI50 [22]: > 100 µM
TGI [22]: > 100 µM
GI50 [23]: > 100 µM
TGI [23]: > 100 µM
GI50 [24]: > 100 µM
TGI [24]: > 100 µM
GI50 [25]: > 100 µM
TGI [25]: > 100 µM
GI50 [26]: > 100 µM
TGI [26]: > 100 µM
GI50 [27]: > 100 µM
TGI [27]: > 100 µM
GI50 [28]: > 100 µM
TGI [28]: > 100 µM
GI50 [29]: > 100 µM
TGI [29]: > 100 µM
GI50 [30]: > 100 µM
TGI [30]: > 100 µM
GI50 [31]: > 100 µM
TGI [31]: > 100 µM
GI50 [32]: > 100 µM
TGI [32]: > 100 µM
GI50 [33]: > 100 µM
TGI [33]: > 100 µM
GI50 [34]: > 100 µM
TGI [34]: > 100 µM
GI50 [35]: > 100 µM
TGI [35]: > 100 µM
GI50 [36]: > 100 µM
TGI [36]: > 100 µM
GI50 [37]: > 100 µM
TGI [37]: > 100 µM
GI50 [38]: > 100 µM
TGI [38]: > 100 µM
GI50 [39]: > 100 µM
TGI [39]: > 100 µM
GI50 [40]: > 100 µM
TGI [40]: > 100 µM
GI50 [41]: > 100 µM
TGI [41]: > 100 µM
GI50 [42]: > 100 µM
TGI [42]: > 100 µM
GI50 [43]: > 100 µM
TGI [43]: > 100 µM
GI50 [44]: > 100 µM
TGI [44]: > 100 µM
GI50 [45]: > 100 µM
TGI [45]: > 100 µM
GI50 [46]: > 100 µM
TGI [46]: > 100 µM
GI50 [47]: > 100 µM
TGI [47]: > 100 µM
GI50 [48]: > 100 µM
TGI [48]: > 100 µM
GI50 [49]: > 100 µM
TGI [49]: > 100 µM
GI50 [50]: > 100 µM
TGI [50]: > 100 µM
GI50 [51]: > 100 µM
TGI [51]: > 100 µM
GI50 [52]: > 100 µM
TGI [52]: > 100 µM
GI50 [53]: > 100 µM
TGI [53]: > 100 µM
GI50 [54]: > 100 µM
TGI [54]: > 100 µM
GI50 [55]: > 100 µM
TGI [55]: > 100 µM
GI50 [56]: > 100 µM
TGI [56]: > 100 µM
GI50 [57]: > 100 µM
TGI [57]: > 100 µM
